In patent US20070105910A1, “Medicinal composition” (priority 2003, published 2007):
Where a name gives a salt, the structure may show the parent alone.

Test: Repeated oral administration test for 10 days using rats: blood hemoglobin (Hb)
Assay type: in vivo
Settings: SD rats; after 10 days oral administration; pioglitazone hydrochloride 240 mg/kg/day, benfotiamine 100 mg/kg/day where combined
Description: After termination of the administration, the blood was collected from the rats and the hemoglobin (Hb) value was determined. Then, the rats were killed, and their hearts were weighed (relative weight).

CCc1ccc(CCOc2ccc(CC3SC(=O)NC3=O)cc2)nc1 (stereo not shown) [Pioglitazone HCl, pioglitazone hydrochloride]
Blood Hb conc. after administration: 13.6 g/dL
